# Reference: ChEMBL document CHEMBL1201862, “PubChem BioAssay data set” (2004)
# Calls of active or inactive are those of the source.
# Tests used:
# [1] = target: T1, Endoribonuclease toxin MazF (Escherichia coli K-12, UniProt P0AE70); experiment: activation of MazEF endoribonuclease cleavage – biochemical, fluorescence, single-stranded RNA substrate, uHTS hits, dose response (AID 588481); assay type: functional
# T1 sequence (P0AE70 whole entry): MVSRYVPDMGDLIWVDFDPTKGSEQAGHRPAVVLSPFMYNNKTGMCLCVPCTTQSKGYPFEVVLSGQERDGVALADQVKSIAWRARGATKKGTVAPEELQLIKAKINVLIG
# [2] = target: T1, Endoribonuclease toxin MazF; experiment: substrate-only fluorescence increase artefacts – biochemical, single-stranded RNase substrate, counter-screen for MazEF activator project, dose response (AID 588502); assay type: functional
# [3] = target: T2, Adenosylmethionine-8-amino-7-oxononanoate aminotransferase (Mycobacterium tuberculosis, UniProt P9WQ81); experiment: Mycobacterium tuberculosis BioA enzyme inhibitor Measured in Biochemical System Using Plate Reader - 2163-02_Inhibitor_Dose_CherryPick_Activity.; assay type: functional, Mycobacterium tuberculosis UT205
# T2 sequence (P9WQ81 whole entry): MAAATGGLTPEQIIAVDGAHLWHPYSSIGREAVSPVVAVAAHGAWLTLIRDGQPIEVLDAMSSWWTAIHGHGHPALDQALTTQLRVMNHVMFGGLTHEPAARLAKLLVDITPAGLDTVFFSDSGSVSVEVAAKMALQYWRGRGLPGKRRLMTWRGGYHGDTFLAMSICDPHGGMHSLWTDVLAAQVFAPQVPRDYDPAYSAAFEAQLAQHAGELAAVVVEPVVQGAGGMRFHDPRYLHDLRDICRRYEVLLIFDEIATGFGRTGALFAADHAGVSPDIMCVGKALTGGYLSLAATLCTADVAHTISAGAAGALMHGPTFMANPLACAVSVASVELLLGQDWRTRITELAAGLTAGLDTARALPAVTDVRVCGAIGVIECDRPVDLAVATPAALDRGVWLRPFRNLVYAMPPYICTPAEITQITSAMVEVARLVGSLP
# [4] = target: T3, Cytochrome P450 3A4 (Homo sapiens, UniProt P08684);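 further: CYP3A4 tested as one member of a cytochrome P450 panel screen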
# T3 sequence (P08684 whole entry): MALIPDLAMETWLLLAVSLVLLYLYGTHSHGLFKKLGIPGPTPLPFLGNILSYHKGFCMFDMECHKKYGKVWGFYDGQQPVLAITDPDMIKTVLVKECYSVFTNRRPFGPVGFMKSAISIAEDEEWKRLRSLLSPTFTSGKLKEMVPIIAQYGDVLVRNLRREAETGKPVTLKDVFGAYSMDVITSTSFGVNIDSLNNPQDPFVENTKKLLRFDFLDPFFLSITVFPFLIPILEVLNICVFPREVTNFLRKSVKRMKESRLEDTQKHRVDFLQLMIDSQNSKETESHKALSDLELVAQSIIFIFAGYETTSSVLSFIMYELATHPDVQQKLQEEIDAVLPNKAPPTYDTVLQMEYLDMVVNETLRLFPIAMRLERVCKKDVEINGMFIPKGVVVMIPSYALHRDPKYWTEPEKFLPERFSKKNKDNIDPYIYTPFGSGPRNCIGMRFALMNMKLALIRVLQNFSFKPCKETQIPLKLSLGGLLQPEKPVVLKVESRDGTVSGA
# [5] = target: Cytochrome P450 2C19 (Homo sapiens, UniProt P33261); experiment: Cytochrome panel assay with activity outcomes. Panel member name: p450-cyp2c19 Compounds with AC50 equal or less than 10 uM are considered active; assay type: functional; conditions: read-out: AC50
# Sequence of Cytochrome P450 2C19 (P33261 whole entry): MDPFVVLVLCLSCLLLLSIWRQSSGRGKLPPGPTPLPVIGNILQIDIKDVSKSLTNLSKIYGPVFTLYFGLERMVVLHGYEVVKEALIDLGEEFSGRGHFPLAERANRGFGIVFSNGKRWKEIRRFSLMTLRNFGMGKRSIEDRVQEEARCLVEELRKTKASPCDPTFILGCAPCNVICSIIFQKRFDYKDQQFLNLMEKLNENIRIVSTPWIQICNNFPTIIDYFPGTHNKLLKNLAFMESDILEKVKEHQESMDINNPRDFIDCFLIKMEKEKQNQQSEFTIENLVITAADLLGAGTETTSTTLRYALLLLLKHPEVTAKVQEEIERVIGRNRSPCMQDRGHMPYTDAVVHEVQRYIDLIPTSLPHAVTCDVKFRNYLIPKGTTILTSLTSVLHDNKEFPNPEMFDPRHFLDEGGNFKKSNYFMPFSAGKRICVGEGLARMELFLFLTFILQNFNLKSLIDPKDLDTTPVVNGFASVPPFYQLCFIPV
# [6] = target: Cytochrome P450 2C9 (Homo sapiens, UniProt P11712)
# Sequence of Cytochrome P450 2C9 (P11712 whole entry): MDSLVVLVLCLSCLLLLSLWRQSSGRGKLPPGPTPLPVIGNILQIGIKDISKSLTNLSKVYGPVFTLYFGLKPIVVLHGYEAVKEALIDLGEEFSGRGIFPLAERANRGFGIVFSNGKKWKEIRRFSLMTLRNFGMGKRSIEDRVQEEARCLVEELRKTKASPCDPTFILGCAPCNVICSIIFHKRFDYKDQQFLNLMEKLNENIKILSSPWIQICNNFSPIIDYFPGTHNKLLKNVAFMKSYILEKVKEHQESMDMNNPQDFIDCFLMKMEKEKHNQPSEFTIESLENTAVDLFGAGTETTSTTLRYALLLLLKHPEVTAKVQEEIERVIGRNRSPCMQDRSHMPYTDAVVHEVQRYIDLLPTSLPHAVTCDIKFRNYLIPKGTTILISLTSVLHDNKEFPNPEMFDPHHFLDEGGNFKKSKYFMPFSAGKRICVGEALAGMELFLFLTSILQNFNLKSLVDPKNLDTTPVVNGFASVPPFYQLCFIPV
# [7] = target: Nonstructural protein 1 (Influenza A virus, UniProt Q194T2); assay type: functional, Influenza A virus (A/California/07/2009(H1N1))
# Sequence of Nonstructural protein 1 (Q194T2 whole entry): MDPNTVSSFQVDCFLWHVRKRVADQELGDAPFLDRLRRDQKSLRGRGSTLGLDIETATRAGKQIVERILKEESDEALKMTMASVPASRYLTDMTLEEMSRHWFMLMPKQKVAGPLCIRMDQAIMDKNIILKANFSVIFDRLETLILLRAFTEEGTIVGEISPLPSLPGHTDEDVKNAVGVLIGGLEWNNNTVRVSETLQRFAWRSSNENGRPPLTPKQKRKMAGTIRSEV
# [8] = cells; assay type: functional, cell-based
# [9] = cells; assay type: functional, cell-based; remark: listed apart in the source
# [10] = NIH-3T3 fibroblast cytotoxicity, dose response, cytotoxicity control, cell-based, fluorescence, Alamar Blue, secondary assay (AID 2327); assay type: functional;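 further: NIH-3T3 mouse fibroblasts cultured with fluconazole at 8 µg/mL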
# [11] = fluconazole-exposed Candida albicans growth modulators – fluorescence, retest, confirmation (AID 2467); assay type: functional, cell-based
# [12] = system: H9c2; experiment: cells; assay type: functional, cell-based; conditions: Rattus norvegicus, H9c2, Myocardium;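 further: confirmatory concentration-response retest of ultra-high-throughput screening hits for modulation of myocardial damage; cell death induced by hydrogen peroxide oxidative stress; compound pretreatment for 60 min then peroxide exposure for 2 h; potency is for protecting the cells against peroxide damage rather than for killing them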
# [13] = target: T4, Cytochrome P450 1A2 (Homo sapiens, UniProt P05177);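 further: PubChem cytochrome P450 panel assay, CYP1A2 panel member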
# T4 sequence (P05177 whole entry): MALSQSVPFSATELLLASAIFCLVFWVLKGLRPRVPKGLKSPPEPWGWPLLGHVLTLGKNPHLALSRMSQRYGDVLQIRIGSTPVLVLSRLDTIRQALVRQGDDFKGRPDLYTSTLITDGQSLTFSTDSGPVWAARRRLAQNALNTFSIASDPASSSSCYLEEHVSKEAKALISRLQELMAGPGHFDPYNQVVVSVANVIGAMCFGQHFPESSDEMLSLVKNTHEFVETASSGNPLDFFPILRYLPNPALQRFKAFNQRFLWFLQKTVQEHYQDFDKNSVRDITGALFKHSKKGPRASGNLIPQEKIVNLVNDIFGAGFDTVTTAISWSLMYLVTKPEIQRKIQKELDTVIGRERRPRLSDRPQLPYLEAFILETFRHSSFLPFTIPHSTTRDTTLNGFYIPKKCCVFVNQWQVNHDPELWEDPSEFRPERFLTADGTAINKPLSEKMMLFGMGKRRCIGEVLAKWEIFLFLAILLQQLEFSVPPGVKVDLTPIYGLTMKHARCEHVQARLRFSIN
# [14] = Luminescence Cell-Based Dose Confirmation HTS to Identify Activators of 5'UTR Stem-Loop Driven Alpha-Synuclein mRNA Translation in H4 Neuroglioblastoma Cells. [Related pubchem assays: 1829 (Project Summary), 1814 (Primary HTS)]; assay type: functional
# [15] = Luminescence Cell-Based Dose Response HTS to Identify Activators of Luciferase Translation or Activity in H4 […] Cells. [Related pubchem assays: 1829 (Project Summary), 1814 (Primary HTS)]; assay type: functional
# [16] = system: H4; experiment: Luminescence Cell-Based Dose Response HTS to Identify Activators of 5'UTR Stem-Loop Driven Prion Protein mRNA Translation in H4 Neuroglioblastoma Cells. [Related pubchem assays: 1829 (Project Summary), 1814 (Primary HTS)]; assay type: functional; conditions: Homo sapiens
# [17] = OVCAR-3 cell viability loss – plate reader, dry powder samples, PAX8 inhibitor project, dose response (AID 743044); assay type: functional, cell-based
# [18] = OVCAR8 cell viability loss – plate reader, dry powder samples, PAX8 project, dose response (AID 743197); assay type: functional, cell-based; conditions: OVCAR-8
# [19] = target: Paired box protein Pax-8 (Homo sapiens, UniProt Q06710); experiment: PAX8 transcriptional activity inhibition in RMG-I – RMG-I cells, luciferase, cherry-pick, dose response (AID 687027); assay type: functional, cell-based;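 further: luciferase reporter driven by Pax8 target thyroperoxidase promoter measured by SteadyGlo luminescence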
# Sequence of Paired box protein Pax-8 (Q06710 whole entry): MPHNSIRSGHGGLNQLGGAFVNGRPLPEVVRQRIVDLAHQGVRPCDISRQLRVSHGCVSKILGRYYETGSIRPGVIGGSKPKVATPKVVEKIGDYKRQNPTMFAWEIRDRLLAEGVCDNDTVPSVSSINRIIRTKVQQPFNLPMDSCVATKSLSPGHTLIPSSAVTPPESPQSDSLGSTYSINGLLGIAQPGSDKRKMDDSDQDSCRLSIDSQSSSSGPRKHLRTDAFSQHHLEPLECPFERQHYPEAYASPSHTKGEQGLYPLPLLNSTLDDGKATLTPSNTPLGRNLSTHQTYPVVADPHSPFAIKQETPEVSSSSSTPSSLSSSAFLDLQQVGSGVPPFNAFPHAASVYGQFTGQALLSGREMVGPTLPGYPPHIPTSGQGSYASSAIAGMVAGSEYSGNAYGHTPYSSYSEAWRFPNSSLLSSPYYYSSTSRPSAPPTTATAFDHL
# [20] = target: Cytochrome P450 2D6 (Homo sapiens, UniProt P10635);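 further: CYP2D6 member of a cytochrome P450 panel assay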
# Sequence of Cytochrome P450 2D6 (P10635 whole entry): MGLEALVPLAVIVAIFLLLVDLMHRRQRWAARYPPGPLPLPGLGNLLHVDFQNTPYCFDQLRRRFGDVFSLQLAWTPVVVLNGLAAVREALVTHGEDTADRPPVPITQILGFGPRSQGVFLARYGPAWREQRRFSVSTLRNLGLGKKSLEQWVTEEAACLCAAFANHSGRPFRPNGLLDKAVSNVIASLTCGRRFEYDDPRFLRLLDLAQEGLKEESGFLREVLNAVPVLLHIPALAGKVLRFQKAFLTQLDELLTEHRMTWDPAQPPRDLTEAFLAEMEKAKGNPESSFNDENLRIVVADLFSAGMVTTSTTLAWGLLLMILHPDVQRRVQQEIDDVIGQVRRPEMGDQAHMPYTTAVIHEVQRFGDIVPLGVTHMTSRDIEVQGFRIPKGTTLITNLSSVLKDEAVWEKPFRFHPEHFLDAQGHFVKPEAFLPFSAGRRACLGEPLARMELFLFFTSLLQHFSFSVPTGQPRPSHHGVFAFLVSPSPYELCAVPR
# [21] = target: T3, Cytochrome P450 3A4; remark: listed apart in the source
compound,measurement,setting,value
NC(=O)CSc1nnc(-c2cc(-c3cccs3)nc3ccccc23)o1,EC50,[1],> 99 µM (inactive)
same,EC50,[2],> 99 µM (inactive)
C/C=C/c1ccc2c(c1)O[C@@H](CN(C)C(=O)Cc1cccnc1)[C@H](C)CN([C@H](C)CO)S2(=O)=O,AC50,[3],10.3 µM (active)
C[C@H](N[C@@H](C)CCc1ccccc1)[C@H](O)c1ccc(O)cc1,AC50,[4],inconclusive
same,AC50,[5],10 µM (inconclusive)
CCOc1ccc(C(C)=O)cc1N1C(=O)C2C3C=CC(O3)C2C1=O (stereo not given),AC50,[6],inconclusive
same,AC50,[5],39.8 µM (inconclusive)
CCOc1cccc(-c2c(C(=O)N/N=C(\C)c3ccccn3)nnn2-c2nonc2N)c1,IC50,[7],3.36 µM (active)
same,EC50,[8],> 350 µM (not active)
same,EC50,[9],6.32 µM (active)
same,EC50,[10],18.2 µM (active)
same,EC50,[11],> 38 µM (not active)
same,IC50,[12],> 79 µM (inactive)
COc1ccc(OC)c(C2=Nn3c(nnc3-c3cc(C)[nH]n3)SC2)c1,EC50,[8],> 350 µM (not active)
same,EC50,[9],> 350 µM (not active)
O=C1C=C(c2ccccc2)CC(c2cccs2)C1n1cnc([N+](=O)[O-])c1 (stereo not given),EC50,[8],> 350 µM (not active)
same,EC50,[9],> 350 µM (not active)
COc1ccc(OCCNc2cc(Cl)ccc2[N+](=O)[O-])cc1,EC50,[1],> 99 µM (inactive)
same,EC50,[2],> 99 µM (inactive)
N#CCCn1c(=O)cnc2cnc(N3CCNCC3)nc21,AC50,[6],inconclusive
same,AC50,[13],12.6 µM (inconclusive)
CN(C(=O)CSc1nc2ccccc2c(=O)n1-c1ccccc1Cl)C1CCS(=O)(=O)C1 (stereo not given),AC50,[3],2.22 µM (active)
COc1ccc2oc(=O)c(C(=O)NC3CCCCCC3)cc2c1,EC50,[8],> 350 µM (not active)
same,EC50,[9],> 350 µM (not active)
same,EC50,[14],28.6 µM (active)
same,EC50,[15],32.6 µM (active)
same,EC50,[16],19.8 µM (active)
O=C(Nc1cc[n+](-c2nc3ccccc3nc2[N-]S(=O)(=O)c2ccc(Cl)cc2)cc1)c1cccs1,EC50,[1],> 99 µM (inactive)
same,EC50,[2],> 99 µM (inactive)
CC(=O)Nc1ccc(S(=O)(=O)Nc2ccc(S(=O)(=O)Nc3nccs3)cc2)cc1,EC50,[8],> 350 µM (not active)
same,EC50,[9],> 350 µM (not active)
O=C(CSc1nncs1)N1c2ccccc2Sc2ccccc21,AC50,[3],1.56 µM (active)
C[C@@H]1CCCCO[C@H](CN(C)C(=O)Nc2ccc(F)cc2)[C@@H](C)CN([C@@H](C)CO)C(=O)c2cc(NS(=O)(=O)c3ccc(Cl)cc3)ccc2O1,AC50,[17],19.6 µM (active)
same,AC50,[18],35 µM (active)
same,AC50,[19],4.84 µM (active)
CCCn1nc2cc(C(=O)NC3CCCc4ccccc43)ccc2c1OCC (stereo not given),AC50,[20],25.1 µM (inconclusive)
same,AC50,[6],inconclusive
same,AC50,[21],15.8 µM (inconclusive)
O=C(OCCNc1ccc(C(F)(F)F)cc1[N+](=O)[O-])c1cc2ccccc2oc1=O,EC50,[1],27.7 µM (inactive)
same,EC50,[2],89.7 µM (inactive)
